Values quoted from earlier work, collected in patent US11839630B2, “CAR-T cells targeting IL-1RAP and their use” (ETABLISSEMENT FRANCAIS DU SANG, priority 2017, dated 2023).

Legend:
[1] = system: CML; conditions: cited from earlier work
[2] = system: CML; conditions: cited from earlier work; remark: listed apart in the source

## Cc1ccc(NC(=O)c2ccc(CN3CCN(C)CC3)cc2)cc1Nc1nccc(-c2cccnc2)n1 [Imatinib]
[1]; 42 of 69 patients, treatment of more than 2 years discontinued
  patients relapsed after discontinuation: 61%
[1]; at 12 months, 69 patients
  probability of persistent molecularly undetectable leukemia: 41%
[2]; n=100 patients with complete molecular response
  rate of molecular relapse after stopping TKI: 61%
[2]; n=100 patients
  median time of molecular relapse: 2.5 months
